Key:
C57BL/6 mice = test: Plasma metabolite levels in mice after a single 1 mg/kg oral gavage dose of NTBC (GC/MS and LC/MS/MS); format: in vivo; settings: single aqueous 1 mg/kg dose by oral gavage, plasma 6 h following dosing, male C57BL/6 mice
Method: For example, six male C57BL/6 mice (20-25 gm, 8-9 weeks age) were administered a single aqueous 1 mg/kg dose of NTBC by oral gavage. Plasma samples were taken 6 h following dosing. […] We conclude that NTBC can be used to reduce plasma BCAA levels in mice. It should be noted that an early study reported that plasma BCAA levels were unaffected after dosing rats with 10 mg/kg NTBC for 11 weeks (Lock et al., 1996).
The dosing solutions were prepared the day of study dosing, approximately one hour prior to dosing. Compound 1 is nitisinone (also referred to herein as “NTBC”).
54 C56BL/6 mice were housed for at least 3 days prior to dosing and were fully acclimated at study start. All mice were ad libitum fed throughout the study. Water was given ad libitum throughout the holding and study periods. Body weight was measured prior to dosing. Dosing for Group 2 and 3 occurred once on the day of study.
Blood collection (approximately 600 μL) was into pre-chilled (0-4° C.) K3-EDTA containing polypropylene blood collection tubes. After blood collection, blood samples were maintained chilled (2-6° C.) and centrifuged within 30 minutes. […]
Samples were extracted and split into equal parts for analysis on GC/MS and LC/MS/MS platforms. Proprietary software was used to match ions to a library of standards for metabolite identification and for metabolite quantitation by peak area integration.

patients = patients taking the drug; cited from earlier work

Structure (SMILES) | reduction of plasma levels of valine, isoleucine and leucine (BCAAs) (C57BL/6 mice) | patients who suffer gastrointestinal side effects (patients)
O=C1CCCC(=O)C1C(=O)c1ccc(C(F)(F)F)cc1[N+](=O)[O-] [Compound 1, nitisinone] | greater than 25% | 
CN(C)C(=N)N=C(N)N [metformin] |  | More than 60%
